Calls of active or inactive are those of the source. No cut-off for these calls is given here. Where a SMILES comes first, the peptide text is derived from it. [ ]: non-standard residue; d: D form. The star is where a group is joined. Ac6c = NC1(C(=O)O)CCCCC1; Cbz = O=C(OCc1ccccc1)*
Experiments:
[1] = molecular target: T1, Cathepsin B (Homo sapiens, UniProt P07858); test: Inhibition of human cathepsin B at 20 uM relative to control
[2] = molecular target: T2, Procathepsin L (Homo sapiens, UniProt P07711); test: Inhibition of human cathepsin L
Target sequence in this assay (P07711 whole entry): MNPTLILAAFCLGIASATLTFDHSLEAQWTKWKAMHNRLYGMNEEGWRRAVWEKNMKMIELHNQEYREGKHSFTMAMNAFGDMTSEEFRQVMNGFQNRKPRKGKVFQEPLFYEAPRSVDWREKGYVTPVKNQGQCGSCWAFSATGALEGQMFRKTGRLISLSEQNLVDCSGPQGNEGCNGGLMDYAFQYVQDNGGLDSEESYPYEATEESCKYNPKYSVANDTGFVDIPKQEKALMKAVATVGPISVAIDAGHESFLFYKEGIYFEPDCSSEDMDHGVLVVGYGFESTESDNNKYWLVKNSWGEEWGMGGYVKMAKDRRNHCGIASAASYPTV

[3] = Inhibition of Plasmodium falciparum recombinant falcipain 2 using Cbz-Leu-Arg-AMC as substrate after 10 mins by fluorescence spectrophotometric analysis
[4] = molecular target: T2, Procathepsin L; test: Inhibition of human cathepsin L at 20 uM relative to control
Target sequence in this assay (P07711 114-333 limits assumed): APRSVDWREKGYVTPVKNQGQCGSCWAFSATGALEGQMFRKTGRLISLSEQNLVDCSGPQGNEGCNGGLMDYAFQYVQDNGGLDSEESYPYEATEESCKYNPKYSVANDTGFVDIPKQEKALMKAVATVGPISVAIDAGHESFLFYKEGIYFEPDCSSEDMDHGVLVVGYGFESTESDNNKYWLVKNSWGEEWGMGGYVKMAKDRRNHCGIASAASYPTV

[5] = species on record: Homo sapiens; test: Inhibition of human alpha-chymotrypsin using Suc-Leu-Tyr-AMC as substrate assessed as residual activity after 10 mins by Dixon plot analysis
[6] = system: Plasmodium falciparum; test: Inhibition of Plasmodium falciparum recombinant falcipain 2 using Cbz-Leu-Arg-AMC as substrate at 20 uM after 10 mins by fluorescence spectrophotometric analysis relative to control
[7] = molecular target: T1, Cathepsin B; test: Inhibition of human cathepsin B

| Structure (SMILES) | inhibition [1] [%] | Ki [2] [µM] | Ki [3] [µM] | inhibition [4] [%] | Activity [5] | inhibition [6] [%] | Ki [7] [µM] |
| --- | --- | --- | --- | --- | --- | --- | --- |
| COc1ccccc1CCC(=O)NC1(C(=O)NCC#N)CCCCC1 | < 35 | 25.1 | 5.2 | < 35 | inactive | < 35 | – |
| CC(C)(NC(=O)OCc1ccccc1)C(=O)NCC#N | < 35 | – | – | < 35 | inactive | < 35 | – |
| N#CCNC(=O)C1(NC(=O)[C@H]2C[C@@H]2c2ccccc2)CCCCC1 (racemic) | < 35 | 13.1 | 2.1 | < 35 | inactive | < 35 | 5 |
| N#CCNC(=O)C1(NC(=O)CCc2ccco2)CCCCC1 | < 35 | – | 17.2 | < 35 | inactive | < 35 | – |
| COc1ccc(CCC(=O)NC2(C(=O)NCC#N)CCCCC2)cc1OC | < 35 | – | 7.3 | < 35 | inactive | < 35 | – |
| O=CCNC(=O)C1(NC(=O)OCc2ccccc2)CCCCC1 (Cbz-[Ac6c]-Gly-aldehyde) | < 35 | 0.82 | 0.065 | < 35 | inactive | < 35 | 1.35 |
| N#CCNC(=O)C1(NC(=O)CCc2cccnc2)CCCCC1 | < 35 | – | 9.4 | < 35 | inactive | < 35 | – |
| N#CCNC(=O)C1(NC(=O)CCC2CCCC2)CCCCC1 | < 35 | 29.8 | 8.2 | < 35 | inactive | < 35 | 25 |
| N#C[C@@H]1CCCN1C(=O)C1(NC(=O)OCc2ccccc2)CCCCC1 | < 35 | – | – | < 35 | inactive | < 35 | – |
| N#CCNC(=O)C1(NC(=O)CCc2cccs2)CCCCC1 | < 35 | – | 8.8 | < 35 | inactive | < 35 | – |
| COc1ccc(CCC(=O)NC2(C(=O)NCC#N)CCCCC2)cc1 | < 35 | – | 8.9 | < 35 | inactive | < 35 | – |
| N#CCNC(=O)C1(NC(=O)OCc2ccccc2)CCCCC1 | < 35 | 26.5 | 1.2 | < 35 | inactive | < 35 | – |
| N#CCNC(=O)C1(NC(=O)C2CCCC2)CCCCC1 | < 35 | – | 7.6 | < 35 | inactive | < 35 | – |

Source: ChEMBL document CHEMBL3217725, “Peptidomimetic nitriles as selective inhibitors for the malarial cysteine protease falcipain-2” (Medchemcomm, 2011)
